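Cells were grown in 96-well plates and exposed to each compound for 48 hours at five concentrations; endpoints were interpolated linearly between bracketing concentrations, or set to the highest concentration if not reached. Here, GI50 denotes the concentration required for 50% inhibition of growth.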 The source made the active and inactive calls. No stated cut-off is given here; in the data, active = GI50 up to about 1.1 µM and inactive = higher.
Assays:
Test in all cases: DTP human tumour cell line panel, 48 h
OVCAR-5 = tested on: OVCAR-5
OVCAR-8 = tested on: OVCAR-8
NCI-H522 = tested on: NCI-H522
SR = tested on: SR
SF-539 = tested on: SF-539
HOP-62 = tested on: HOP-62
MDA-MB-435 = tested on: MDA-MB-435
T47D = tested on: T47D
SW-620 = tested on: SW-620
HL-60 = tested on: HL-60
U-251 = tested on: U-251
OVCAR-4 = tested on: OVCAR-4
OVCAR-3 = tested on: OVCAR-3
CAKI-1 = tested on: CAKI-1
COLO 205 = tested on: COLO 205
UACC-257 = tested on: UACC-257
UO-31 = tested on: UO-31
SNB-19 = tested on: SNB-19
HOP-92 = tested on: HOP-92

Compound | GI50 (OVCAR-5) | GI50 (OVCAR-8) | GI50 (NCI-H522) | GI50 (SR) | GI50 (SF-539) | GI50 (HOP-62) | GI50 (MDA-MB-435) | GI50 (T47D) | GI50 (SW-620) | GI50 (HL-60) | GI50 (U-251) | GI50 (OVCAR-4) | GI50 (OVCAR-3) | GI50 (CAKI-1) | GI50 (COLO 205) | GI50 (UACC-257) | GI50 (UO-31) | GI50 (SNB-19) | GI50 (HOP-92)
COc1ccc(/C=C2/C(=O)N(/C=C3\C(=O)Oc4ccccc4C3=O)/C(=N/C(C)=O)N2C)cc1OC | > 100 µM (inactive) | > 100 µM (inactive) | > 100 µM (inactive) | > 100 µM (inactive) | > 100 µM (inactive) | > 100 µM (inactive) | > 100 µM (inactive) | > 100 µM (inactive) | > 100 µM (inactive) | > 100 µM (inactive) | > 100 µM (inactive) | > 100 µM (inactive) | 0.143 µM (active) | > 100 µM (inactive) | > 100 µM (inactive) | > 100 µM (inactive) | – | – | –
CCOC(=O)C(Cc1ccc(OC(=O)OC(C)(C)C)cc1)NC(=O)OC(C)(C)C (configuration not stated) | > 100 µM (inactive) | 37.4 µM (inactive) | > 100 µM (inactive) | 26.4 µM (inactive) | 44.8 µM (inactive) | > 100 µM (inactive) | 38.2 µM (inactive) | 29 µM (inactive) | 34.7 µM (inactive) | 28.2 µM (inactive) | 37.2 µM (inactive) | > 100 µM (inactive) | 40.6 µM (inactive) | > 100 µM (inactive) | 39.7 µM (inactive) | 21.3 µM (inactive) | 54.3 µM (inactive) | > 100 µM (inactive) | –
COc1ccc(C(=O)N2CCN(c3ccc4[nH]c(=O)oc4c3)CC2)cc1 | > 100 µM (inactive) | > 100 µM (inactive) | 53.1 µM (inactive) | 92.5 µM (inactive) | > 100 µM (inactive) | > 100 µM (inactive) | > 100 µM (inactive) | > 100 µM (inactive) | > 100 µM (inactive) | 39.4 µM (inactive) | > 100 µM (inactive) | 84.1 µM (inactive) | > 100 µM (inactive) | – | > 100 µM (inactive) | > 100 µM (inactive) | > 100 µM (inactive) | > 100 µM (inactive) | > 100 µM (inactive)
Nc1c(Br)cc(-c2cc(Br)c(N)c(Br)c2)cc1Br | > 100 µM (inactive) | > 100 µM (inactive) | > 100 µM (inactive) | > 100 µM (inactive) | > 100 µM (inactive) | 66.1 µM (inactive) | > 100 µM (inactive) | > 100 µM (inactive) | > 100 µM (inactive) | > 100 µM (inactive) | – | > 100 µM (inactive) | > 100 µM (inactive) | > 100 µM (inactive) | > 100 µM (inactive) | > 100 µM (inactive) | > 100 µM (inactive) | > 100 µM (inactive) | > 100 µM (inactive)
c1cc2ccc3cc4ncccc4c4ccc(c1)c2c34 | 84.7 µM (inactive) | 6.82 µM (inactive) | 16.7 µM (inactive) | < 0.01 µM (active) | 20.9 µM (inactive) | 19.9 µM (inactive) | 40.4 µM (inactive) | 3.36 µM (inactive) | 17.5 µM (inactive) | 33.2 µM (inactive) | 17.9 µM (inactive) | – | 82.2 µM (inactive) | 18.5 µM (inactive) | 9.82 µM (inactive) | 56.8 µM (inactive) | 5.43 µM (inactive) | 90.8 µM (inactive) | 17.4 µM (inactive)
CC[C@@]1(O)C(=O)OCc2c1cc1n(c2=O)Cc2cc3cc(O)ccc3nc2-1 [HYDROXYCAMPTOTHECIN] | 0.047 µM (active) | 0.0142 µM (active) | 0.0105 µM (active) | 0.01 µM (active) | 0.00826 µM (active) | < 0.0109 µM (active) | 0.0453 µM (active) | 0.01 µM (active) | – | 0.0161 µM (active) | < 0.0075 µM (active) | 0.092 µM (active) | – | 0.00971 µM (active) | 0.125 µM (active) | – | – | – | 0.0277 µM (active)

Reference: ChEMBL document CHEMBL1201862, “PubChem BioAssay data set” (2004)
